In PMC1764757 (BMC Cancer, 2006):

Key:
[1] = ancillary pharmacokinetic study, plasma, HPLC-MS/MS; conditions: for Tmax: human, iv
Description: (§1) Blood samples were taken following drug administration and the plasma extracted immediately and stored. Blood samples for determination of Cilengitide were collected at the following time points: day 1 immediately before Cilengitide infusion and after 1 h (end of infusion); day 8 immediately before Cilengitide infusion and after 1 h (end of infusion) and 0.5 h, 1 h, 2 h, 3 h, 4 h, 7 h, and 11 h after end of Cilengitide infusion. Blood samples for gemcitabine analysis were collected in both treatment arms on day 1 and day 8 at the following time points: 0 h (immediately before start of infusion of gemcitabine), 0.5 h (at the end of infusion of gemcitabine) and 0.5 h, 1.5 h, 2.5 h, and 3.5 h after end of gemcitabine infusion.
(§2) Analysis was carried out at a single laboratory using high-performance liquid chromatography-tandem mass spectrometry. Calculation of pharmacokinetic parameters was performed according to non-compartmental standard methods. Pharmacokinetic analyses included maximum plasma concentration (Cmax), time to maximum concentration (tmax), area under the curve from time zero to the last sampling time (AUC0-t), area under the curve from time zero to infinity (AUC0-∝), apparent elimination rate constant (λz), apparent terminal elimination half-life associated with the negative terminal slope (t1/2), total body clearance of drug from plasma (CL) and the volume of distribution at steady state (Vss). The lower limits of quantification for Cilengitide and gemcitabine in plasma were 1 ng/mL and 50 ng/mL, respectively. For the plasma quality control samples of Cilengitide the interbatch coefficient of variation (CV) was 3.4% to 9.2% and the interbatch accuracy was 97% to 104%. For the plasma quality control samples of gemcitabine, the interbatch CV was 5.6% to 9.4% and the interbatch accuracy was 93.5% to 104%.

[2] = test system: patients with advanced unresectable pancreatic cancer; assay: randomized phase II trial: safety, adverse events (NCI-CTC); assay type: in vivo, human
From the text: This was a multi-national, open-label, controlled, randomized, parallel-group, phase II pilot study, conducted in 20 centers in 7 countries (Austria, Belgium, France, Germany, Spain, Switzerland, and the United Kingdom). Eligible patients were randomized to receive either Cilengitide and gemcitabine or gemcitabine alone. The Pocock minimization method was applied for randomization using factors for center and for locally advanced or metastatic disease following the definition according to the tumor-node-metastasis (TNM) classification and histopathological grading system of the International Union Against Cancer. Cilengitide (600 mg/m^2) was administered twice weekly as a 1 hour intravenous (IV) infusion for 4 consecutive weeks (1 cycle). Gemcitabine (1000 mg/m^2) was administered as a weekly 30-minute IV infusion once weekly for 3 weeks followed by 1 week of rest (1 cycle). In the drug combination group, on the days on which both drugs were given, Cilengitide was given immediately prior to gemcitabine. The planned treatment period was 24 weeks (6 cycles), but patients responding to either regimen could continue treatment up to a maximum of 48 weeks. […] Any change was based on patient hematological and/or non-hematological parameters on the intended day of treatment as well as the maximum drug-induced toxicity grade observed between dosing. The before treatment and 4-weekly evaluations included a physical examination and laboratory investigations (blood counts, biochemical profile, urinalysis). Assessments were also made of Karnofsky performance status and vital signs. Before the start of the study, at the end of the study and when clinically indicated during the study chest X-rays and 12-lead electrocardiograms were performed. Adverse events were monitored and evaluated for frequency, duration, severity (mild, moderate, severe, life-threatening) and possible relationship to study medication. Toxicity was assessed according to NCI-CTC Version 2. All adverse events whether reported by a patient or observed by an investigator or study nurse were documented, regardless of whether they were considered to be drug-related, together with any medical intervention.

[3] = test system: patients with advanced unresectable pancreatic cancer; assay: randomized phase II trial: quality of life (EORTC QLQ-C30); assay type: in vivo, human; conditions: QLQ-C30, change from baseline
Description: Quality of life (QoL) was assessed using the European Organization for Research and Treatment of Cancer (EORTC) QoL core questionnaire (QLQ-C30, Version 3.0) in conjunction with the EORTC Pancreatic Module ([…] is a self-administered 30-item questionnaire and incorporates 5 functional scales, 3 symptom scales and a global health/QoL scale. EORTC-PAN26 is a 26-item questionnaire addressing pancreas cancer specific symptoms and the side effects from conventional therapy. Assessments were made at weeks 1, 9, 17, 25 and at the end of treatment. QoL data were analyzed descriptively due to the small number of patients enrolled in the study.

[4] = test system: patients with advanced pancreatic cancer; conditions: cited from earlier work
[5] = test system: patients with advanced unresectable pancreatic cancer; assay: randomized phase II trial: survival, PFS and tumor response; assay type: in vivo, human
From the text: Patients with advanced unresectable pancreatic cancer were enrolled. Eligibility criteria included age ≥ 18 years, diagnosed (histologically or cytologically) with or without metastases, at least one bidimensionally measurable lesion, a Karnofsky performance score of ≥ 70%, a life expectancy of at least 12 weeks, and written informed consent. The main exclusion criteria were prior chemotherapy and/or major surgery related to pancreatic cancer before study entry with the exception of palliative surgery, brain metastases, a pancreatic tumor of neuroendocrine origin, second primary malignancies, inadequate liver and renal functions, inadequate bone marrow reserve, a history of cerebrovascular accident or repeated transient ischemic attacks and cardiac or cardiovascular abnormality.
This was a multi-national, open-label, controlled, randomized, parallel-group, phase II pilot study, conducted in 20 centers in 7 countries (Austria, Belgium, France, Germany, Spain, Switzerland, and the United Kingdom). Eligible patients were randomized to receive either Cilengitide and gemcitabine or gemcitabine alone. The Pocock minimization method [23] was applied for randomization using factors for center and for locally advanced or metastatic disease following the definition according to the tumor-node-metastasis (TNM) classification and histopathological grading system of the International Union Against Cancer. Cilengitide (600 mg/m^2) was administered twice weekly as a 1 hour intravenous (IV) infusion for 4 consecutive weeks (1 cycle). Gemcitabine (1000 mg/m^2) was administered as a weekly 30-minute IV infusion once weekly for 3 weeks followed by 1 week of rest (1 cycle). In the drug combination group, on the days on which both drugs were given, Cilengitide was given immediately prior to gemcitabine. The planned treatment period was 24 weeks (6 cycles), but patients responding to either regimen could continue treatment up to a maximum of 48 weeks.
Overall survival was defined as the time from the start of study drug administration to death. PFS was defined as the time interval between the date of randomization and the date of disease progression or death whichever came first. If neither was observed the patient was censored at the date of the last follow-up examination. A computed tomography or magnetic resonance imaging scan of target lesions was performed at baseline, weeks 9 and 17, and at the end of treatment to assess tumor size and treatment response. Unscheduled scans were conducted to confirm disease progression. Tumor response was assessed according to the amended World Health Organization (WHO) criteria for response based on the size of target lesions.
The sample size of the trial was determined by clinical feasibility. No inferential statistical comparison of the two treatment arms was planned. The aim was to obtain information on safety and feasibility as well as trends in efficacy by determination of overall survival as primary and progression-free survival (PFS), response rate, quality of life (QoL), effects on biological markers of disease (CA 19.9) and angiogenesis (vascular endothelial growth factor and basic fibroblast growth factor) and safety as secondary endpoints. Confidence intervals were presented at the 95%-confidence level. The data of this phase II pilot- and feasibility study, are presented in a descriptive manner. The primary analysis of survival (time to death from any cause) was conducted using the intention-to-treat (ITT) population. An additional supportive analysis using the Per Protocol (PP) population was conducted. The secondary objectives were to determine PFS, response rates, safety and tolerability, QoL, biological response, and pharmacokinetics.

[6] = human, in vivo, iv, 600 mg/m^2, 1 h
Description: as §1, §2

[7] = test system: patients with advanced solid tumors; conditions: in vivo; cited from earlier work
clinical = conditions: human, in vivo, iv
Description: as §1, §2

[8] = all adverse events during the treatment period
[9] = onset during the treatment phase
[10] = possibly related to treatment, listed as gemcitabine alone
[11] = WHO criteria, ITT, listed as gemcitabine alone
[12] = Cilengitide 600 mg/m^2 1 h IV infusion with gemcitabine, plasma, n 10
[13] = in combination with gemcitabine

## Nc1ccn([C@@H]2O[C@H](CO)[C@@H](O)C2(F)F)c(=O)n1 [Gemcitabine, gemcitabine]
[1]; gemcitabine alone group, Week 1, n = 5
  median maximum plasma concentration: 10600 ng/mL
[1]; gemcitabine alone group, Week 2, n = 5
  median maximum plasma concentration: 6060 ng/mL
[1]; gemcitabine in the Cilengitide and gemcitabine group, Week 1, n = 12
  median maximum plasma concentration: 6960 ng/mL
[1]; gemcitabine in the Cilengitide and gemcitabine group, Week 2, n = 11
  median maximum plasma concentration: 7490 ng/mL
[1]; plasma, 1000 mg/m^2
  Tmax: 0.5 h
[2]; SAE, Grade 3, relationship not assessable, considered possibly related
  Condition reduced, number of events: 1
[2]; [8]
  Gamma-glutamyl transferase elevations (% of patients): 29%
  Nausea (% of patients): 50%
  Shivering (% of patients): 7%
  ascites (% of patients): 26%
  cholestasis (% of patients): 26%
  dyspepsia (% of patients): 29%
  dyspnea (% of patients): 14%
  fever (% of patients): 24%
  jaundice (% of patients): 19%
  urinary tract infection (% of patients): 21%
[2]; in vivo
  number of possibly related serious adverse events: 8
  patients with possibly related adverse events, %: 76%
  patients with possibly related adverse events, number: 32
  total number of possibly related adverse events: 278
[2]; [9]
  AE, Grade 1/2, No. of events: 617
  AE, Grade 1/2, Pts (%): 17%
  AE, Grade 3/4, No. of events: 138
  AE, Grade 3/4, Pts (%): 83%
  AE, all grades, No. of events: 755
  AE, all grades, Pts (%): 100%
  SAE, all, No. of events: 64
  SAE, all, Pts (%): 71%
[2]; onset during the treatment phase, listed as gemcitabine alone
  SAE, all, Pts (%): 71%
[2]; possibly related SAE, Grade 2
  Epistaxis, number of events: 1
  Exanthema, number of events: 1
  Pneumonia, number of events: 1
[2]; possibly related SAE, Grade 3
  Anorexia, number of events: 1
  Depression, number of events: 1
  Dyspnea, number of events: 2
[2]; possibly related to treatment
  Anemia (% of patients): 26%
  Anorexia (% of patients): 14%
  Asthenia (% of patients): 10%
  Edema (% of patients): 5%
  Fatigue (% of patients): 19%
  Hair changes (% of patients): 12%
  Headache (% of patients): 0%
  Leukopenia (% of patients): 26%
  Nausea (% of patients): 38%
  Peripheral edema (% of patients): 5%
  Shivering (% of patients): 2%
  Sweating increased (% of patients): 2%
  Thrombocytopenia (% of patients): 33%
  Vomiting (% of patients): 26%
  dyspepsia (% of patients): 7%
  fever (% of patients): 10%
[2]; [10]
  Leukopenia (% of patients): 26%
  Shivering (% of patients): 2%
[3]; week 9
  patients reporting an improved global health status: 50%
[3]; week 17
  patients reporting an improved global health status: 47%
[4]; gemcitabine alone
  median survival time: 5.7 months
[5]; ITT population
  1-year survival (95% CI): 0.24 (0.11–0.37)
  Median PFS (95% CI): 115 (62–178) days
  Median survival (95% CI): 234 (137–290) days
  Number of deaths: 37
  median PFS time: 3.8 months
  median overall survival: 7.7 months
[5]; WHO criteria, ITT
  Complete response, % of patients: 2%
  Complete response, No. patients: 1
  Partial response, % of patients: 12%
  Partial response, No. patients: 5
  Progressive disease, % of patients: 23%
  Progressive disease, No. patients: 10
  Response rate, % of patients: 14%
  Response rate, No. patients: 6
  Stable disease, % of patients: 42%
  Stable disease, No. patients: 18
  Tumor growth control rate, % of patients: 56%
  Tumor growth control, No. patients: 24
[5]; [11]
  Response rate, % of patients: 14%
  Tumor growth control rate, % of patients: 56%

## CC(C)[C@H]1C(=O)N[C@@H](CCCN=C(N)N)C(=O)NCC(=O)N[C@@H](CC(=O)O)C(=O)N[C@H](Cc2ccccc2)C(=O)N1C [Cilengitide, Cyclo-l-Arg-l-Asp-d-Phe-N (Me) l-Val]
[1]; [12]
  CL, Geomean: 54.2 mL/min/m^2
  Vss, Geomean: 12100 mL/m^2
[1]; plasma
  Tmax: 1 h
[6]
  mean concentration at the end of infusion: 62.182 ± 12.345 µg/mL
[7]
  dose limiting toxicity: no dose limiting toxicity was recorded
clinical; 600 mg/m^2, mean concentration at the end of infusion
  level at 1 h: 75.4 ± 31.5 µg/mL
clinical; t1/2, Geomean
  half-life: ~3 h

## bevacizumab: anti-VEGF-agent, given in combination with gemcitabine
[4]; [13]
  median overall survival time: 8,8 months
  response rate: 21%
